These results are taken from patent US5965126A, “use of mutant alkyltransferases for gene therapy to protect from toxicity of therapeutic alkylating agents” (priority 1996, dated 1999).

Changes are numbered by the printed parent chain. A value given as a limit tells only on which side of the number the result lay.

The target in one series is T1, human AGT mutant P140A (Homo sapiens, UniProt P16455, P140A).
T1 construct: expressed in transfected cells; host or cells: Chinese hamster ovary (CHO) cells
T1 sequence (P16455 1-207 P140A): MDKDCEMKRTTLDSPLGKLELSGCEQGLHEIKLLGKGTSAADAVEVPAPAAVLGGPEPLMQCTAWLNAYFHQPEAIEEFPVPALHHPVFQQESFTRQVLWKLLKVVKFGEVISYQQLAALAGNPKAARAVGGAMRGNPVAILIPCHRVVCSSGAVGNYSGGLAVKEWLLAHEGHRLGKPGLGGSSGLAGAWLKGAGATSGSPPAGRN
As to the kind of experiment: Inactivation of cellular AGT in CHO cells expressing mutant P140A (CHO-P140A). It is filed as cell-based. The note with it: for Increase of ED50 with P140A AGT: relative to control AGT in CHO cells, 240 min. The procedure: (§1) The cells were then harvested and the AGT activity determined.
(§2) AGT activity assays--Extracts were prepared and AGT activity was determined as described by Dolan et al. (Dolan, et al., 1990, Proc. Natl. Acad. Sci. U.S.A. 87: 5368-5372) by incubation for 30 min at 37° C. with a [^3 H]methylated calf thymus DNA substrate prepared by reaction of DNA with N-[^3 H]methyl-N-nitrosourea (Amersham Inc., Arlington Hts., Ill.). The AGT activity of the cells was then expressed as fmol of O^6 -methylguanine removed per mg of protein present in the cell extracts. Protein was determined by the method of Bradford (Bradford, 1976, Anal. Biochem. 72: 248-254). […] After 4 h exposure, the cells were harvested and washed with PBS. Cell pellets were stored at -80° C. until assayed. Extracts were then prepared and AGT activity determined. The results were expressed as the percentage of the AGT activity present in cultures to which no drug was added.

The test system of series [1] is CHO cells expressing mutant AGTs. As to the kind of experiment: Effect of AGT inhibitors alone on colony formation. It is filed as cell-based, Chinese hamster. The note with it: inhibitor alone, 18-20 h, cells expressing G156A. How it is done:
FIG. 5 show the effect of different concentrations of BG and 5-nitroso-BP on colony formation. BG was added to CHO cells expressing mutant AGTs P140 (.circle-solid.) and G156A (.quadrature.) and 5-nitroso-BP was added to cells expressing G156A (.box-solid.) for 18-20 h. The cells were then replated as described in materials and methods and colonies were counted 7-8 days later.
(§3) Cytotoxicity assays--Cell killing was determined using a colony forming assay (Pegg, et al., 1995, Biochem. Pharmacol. 50: 1141-1148; Dolan, et al., 1986, Cancer Res. 46: 4500-4504). The cells were plated using 10^6 cells per 25 cm^2 flask and grown for 24 h. After 2 h of incubation with either BG or 5-nitroso-BP, 80 μM BCNU was added for 2 h. The medium was then replaced with fresh medium also containing the AGT inactivator and the cells were left at 37° C. for an additional 16-18 h. The cells were then replated at densities of 100 to 1000 cells per 25 cm^2 flask and grown for 7-8 days until discrete colonies could be stained and counted. The colonies were washed with 0.9% saline and stained with crystal violet and counted.

Series [2] deals with T2, AGT (Homo sapiens, UniProt P16455).
T2 sequence (P16455 1-207): T1 sequence (P16455 1-207 P140A) with A140P
As to the kind of experiment: Inactivation of cellular AGT in CHO cells expressing human AGT (CHO-AGT). The note with it: read-out: Inactivation of AGT, ED50 after 4 h exposure. It is filed as cell-based. Details: expressed in transfected cells; host or cells: Chinese hamster ovary (CHO) cells. How it is done: as §1, §2

The subject of series [3] is AGT. The note with it: HT29 cells; read-out: Inactivation of AGT, ED50 after 4 h exposure; cited from earlier work.
Series [4] deals with CHO cells expressing control AGT. As to the kind of experiment: Sensitization to killing by 80 μM BCNU, colony forming assay, CHO cells expressing control AGT. It is filed as cell-based, Chinese hamster. The note with it: with 80 μM BCNU. The procedure:
(§4) FIG. 6a and FIG. 6b show the effect of different concentrations of BG (FIG. 6a) and 5-nitroso-BP (FIG. 6b) on killing of cells by BCNU. Cells were treated with BG or 5-nitroso-BP at the concentrations indicated for 2 h and BCNU at 80 μM was added for 2 h. Medium was replaced with fresh medium also containing the AGT inhibitor but not BCNU for the period of 18 h. The cells were then replated as described in materials and methods and colonies were counted 7-8 days later.
as §3

Series [5] deals with CHO cells expressing P140A AGT. As to the kind of experiment: Sensitization to killing by 80 μM BCNU, colony forming assay, CHO cells expressing P140A AGT. The note with it: with 80 μM BCNU. It is filed as cell-based, Chinese hamster. How it is done:
as §4, §3

The subject of series [6] is CHO cells expressing G156A AGT. As to the kind of experiment: Sensitization to killing by 80 μM BCNU, colony forming assay, CHO cells expressing G156A AGT. In kind it is cell-based, Chinese hamster. The procedure: as §4, §3
The next series deals with T3, human AGT mutant G156A (Homo sapiens, UniProt P16455, G156A).
T3 construct: expressed in transfected cells; host or cells: Chinese hamster ovary (CHO) cells
T3 sequence (P16455 1-207 G156A): T1 sequence (P16455 1-207 P140A) with A140P, G156A
As to the kind of experiment: Inactivation of cellular AGT in CHO cells expressing mutant G156A (CHO-G156A). In kind it is cell-based. The note with it: for Increase of ED50 with G156A AGT: relative to control AGT in CHO cells, 240 min. The procedure: as §1, §2

Series [7] has as its system ΔMGMT transduced CD34^+ cells. Nature of the series: Clonogenic progenitor survival after BG and BCNU, ΔMGMT transduced CD34+ cells. The procedure:
(§5) CD34^+ Transduction--Peripheral blood mononuclear cells were obtained by apheresis from patients treated with cyclophosphamide and G-CSF. CD34^+ progenitors were isolated using the Ceprate SC Stem Cell Concentrator (Cell Pro, Bothell, Wash.) according to manufacturer's directions. Briefly, cells were washed and incubated with biotinylated anti-CD34 antibody, passed over an avidin column and the bound fraction eluted by gentle agitation. […] At 48 hours, half of the media was removed, cells were pelleted and resuspended in fresh, supplemented media, and non-adherent cells were collected at 96 hours.
(§6) BCNU was dissolved in 100% ethanol and diluted to 10 mM with serum free media and immediately added to the cells. Following a two hour incubation at 37° C., cells were incubated in methylcellulose (Stem Cell Technologies, Inc.) containing either SCF, IL3, hemin, erythropoietin, GM-CSF (for CD34^+ cells) or GM-CSF and IL-3 (for K562 cells) in triplicate. […] After incubation for 7-10 days at 37° C. colonies were enumerated and survival was analyzed at each BCNU dose.

The test system of series [8] is wtMGMT transduced K562 cells. Nature of the series: Clonogenic survival in methylcellulose after BG and BCNU, wtMGMT transduced K562 cells. In kind it is cell-based, human.
Series [9] relates to ΔMGMT transduced K562 cells. Nature of the series: Clonogenic survival in methylcellulose after BG and BCNU, ΔMGMT transduced K562 cells. In kind it is cell-based, human.
For series [10], the system named is lac Z transduced hematopoietic progenitor cells. As to the kind of experiment: Clonogenic progenitor survival after BG and BCNU, lac Z transduced CD34+ cells. The note with it: 10 μM BG and 10 μM BCNU, lac Z transduced progenitors. How it is done: as §5, §6
A further series concerns untransduced K562 cells. As to the kind of experiment: Clonogenic survival in methylcellulose after BG and BCNU, untransduced K562 cells. It is filed as cell-based. The note with it: Homo sapiens.
For the next series, the system named is Control CHO cells. Nature of the series: Colony forming assay, killing of control CHO cells by BCNU. It is filed as cell-based, Chinese hamster. The note with it: 2 h, after 80 μM BCNU, read-out: survival. The procedure: (§7) Control CHO cells (.tangle-solidup.) and CHO cells expressing human AGT (.smallcircle.) or its mutants P140A (.circle-solid.) and G156A (.quadrature.) were treated with BCNU at the concentration shown for 2 h. The medium was then replaced. After 16-18 h, the cells were replated as described in Example Section 6 and colonies were counted 7-8 days later.
as §3

Series [11] relates to CHO cells expressing control or mutant AGT. As to the kind of experiment: Colony forming assay, killing by BCNU of transfected CHO cells expressing control or mutant AGT. In kind it is cell-based, Chinese hamster. The note with it: up to 100 μM BCNU, highest concentration tested. The procedure:
as §7, §3

A further series concerns the target T4, wtAGT (Homo sapiens, UniProt P16455).
T4 sequence (P16455 1-207): T1 sequence (P16455 1-207 P140A) with A140P
As to the kind of experiment: BG inactivation of AGT in wtMGMT transduced K562 cells. The note with it: 5 μM BG.

The target in the next series is T5, ΔAGT (G156A) (Homo sapiens, UniProt P16455, G156A).
T5 sequence (P16455 1-207 G156A): T1 sequence (P16455 1-207 P140A) with A140P, G156A
Nature of the series: cell-based. The note with it: K562, read-out: AGT activity retained.

The target of series [12] is T2, AGT. Nature of the series: In vitro screen of potential AGT-inhibiting BG analogs. The note with it: versus BG and BGs modified at the benzyl ring. The source says:
(§8) Another embodiment of the present invention relates to the use of a mutant AGT protein, preferably a human AGT protein, resistant to inactivation by a compound shown to inactivate or at least substantially inactivate the DNA repair function of wild type AGT which include, but again are in no way limited to the O^6 -substituted guanosine and 2' deoxyguanisine compounds disclosed in U.S. Pat. No. 5,352,669 issued to Moschel, et al. on Oct. 4, 1994. […] Furthermore, escalation of the dBG dose was not restricted by solubility as with BG. Therefore, this class of compounds, as exemplified by dBG, will be useful in practicing the present invention whereby the skilled artisan identifies a related AGT mutant which imparts resistance to addition of dBG both in vitro and in vivo.

Series [13] in a line: Solubility in aqueous media. It is filed as physicochemical.
Description: as §8

The next series relates to xenograft. Nature of the series: In vivo xenograft system, potentiation of BCNU.
Description: as §8

Setting [14] is: Homo sapiens, K562, read-out: BCNU IC50, clonogenic survival.
[15] abbreviates: Homo sapiens, K562, read-out: BCNU IC90, clonogenic survival.

Turning to `Nc1nc(N)c(N=O)c(OCc2ccccc2)n1` [5-nitroso-BP, 2,4-diamino-6benzyloxy-5-nitrosopyrimidine], the IC50 at human AGT mutant P140A (CHO-P140A cells, read-out: Inactivation of AGT, ED50 after 4 h exposure) was 1.25 µM; on AGT [2] it was 0.05 µM; with AGT [3], 0.02 µM; at human AGT mutant G156A (CHO-G156A cells, read-out: Inactivation of AGT, ED50 after 4 h exposure), 5 µM. Further, the “Increase of ED50 with P140A AGT” value on human AGT mutant P140A worked out at 25 fold. Further, the “concentrations reducing colony formation” value in [1] is “above 30 μM”. In addition, in [4], the “concentration required to reduce colony formation to <1 per 1000 cells plated” value is recorded as “about 5 μM”. In [5], the “concentration needed to reduce colony formation to <1 per 1000 cells plated” value was “More than 25 μM”. Further, the “concentration required to sensitize cells to BCNU” value in series [6] (with 80 μM BCNU) was > 40 µM. In addition, the “Increase of ED50 with G156A AGT” value on human AGT mutant G156A worked out at 100 fold.

A word on the IC90: it is the point of the concentration-response curve where the effect stands at 90%. For the compound `O=NN(CCCl)C(=O)NCCCl` [BCNU, N,N'-bis(2-cholorethyl)-N-nitrosourea], in [7] (10 μM BG and 10 μM BCNU, ΔMGMT transduced CD34+), the cells resistant result is “approximately 25%”. The “colonies very resistant to BG & BCNU” value in series [7] (ΔMGMT transduced CD34+ derived colonies) was “Over 30%”. Further, the clonogenic survival in series [8] (30 μM BCNU & BG, wtMGMT K562 cells) is listed as < 1%; in series [9] (30 μM BCNU & BG, ΔMGMT K562 cells), 20%. Besides, the IC50 came out at 4 µM in series [8] (setting [14]); 11.3 µM in series [9] (setting [14]); 1.3 µM in the series with untransduced K562 cells (K562, read-out: BCNU IC50, clonogenic survival). In addition, the IC90 in [8] (setting [15]) was 16 µM; in series [9] (setting [15]) it was > 30 µM; with untransduced K562 cells (K562, read-out: BCNU IC90, clonogenic survival), 5 µM. For the same compound, the cells killed result in [10] is reported as “greater than 99%”. In addition, the viability at 80 µM in the series on Control CHO cells is < 0.1%. Also, the “killing by BCNU” value in [11] was “completely resistant”.

As to `Nc1nc(OCc2ccccc2)c2[nH]cnc2n1` [BG, O^6 -benzylguanine], the AGT activity entry at wtAGT is listed as “undetectable”. Further, on human AGT mutant P140A, the “Increase of ED50 with P140A AGT” value came out at 30 fold. For the same compound, the activity at 5 µM at ΔAGT (G156A) was > 90%. Further, the IC50 with AGT [3] is 0.05 µM. For the same compound, the “concentration required to reduce colony formation to <1 per 1000 cells plated” value in series [4] is 50 µM. Further, the “concentration needed to reduce colony formation to <1 per 1000 cells plated” value in [5] is 200 µM. In series [6] (350 μM BG with 80 μM BCNU), the “survival under combined BG and BCNU” value is reported as “substantial survival”. In addition, on human AGT mutant G156A, the “Increase of ED50 with G156A AGT” value was found to be 60 fold.

As for `Nc1nc(OCc2ccccc2)c2ncn([C@H]3C[C@H](O)[C@@H](CO)O3)c2n1` [dBG], the “potency relative to BG (less potent)” value on AGT [12] is listed as 10 fold. The “solubility in aqueous media compared to other BGs” value in series [13] is reported as “superior solubility”. In the series with xenograft, the “BCNU-potentiating effects compared with BG” value is reported as “quite comparable”.
